According to the supplement of paper PMC10307832:

Experiments:
Experiment in all cases: relative viability (nuclei count vs DMSO), 5 days (fraction); higher = more cells survive
[1] = compound: CC1=CC(=CC=C1)NC2=NC(=CS2)C3=CC=NC=C3 + COc1cccc2cc(-c3nc([C@H]4CC[C@H](C(=O)O)CC4)n4ncnc(N)c34)[nH]c12 [OSI-027] (partner 0.5 µM)
Summary of the method: (§1)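 Values are medians from duplicate plates. Each reflects relative viability, defined as the nuclei count of treated wells over that of vehicle wells. Lung cancer cell lines in 1536-well plates were pin-tool dosed one day after seeding with one drug alone or with a fixed anchor-drug dose plus five library-drug doses (not always all listed) in √10 steps, then fixed, stained and imaged at 4× after 5 days.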

[2] = compound: CC1=CC(=CC=C1)NC2=NC(=CS2)C3=CC=NC=C3 + O=C(CCCCCCC(=O)Nc1ccccc1)NO [Vorinostat] (partner 1 µM)
Summary of the method: as §1

Masitinib + Navitoclax = compound: Cc1ccc(NC(=O)c2ccc(CN3CCN(C)CC3)cc2)cc1Nc1nc(-c2cccnc2)cs1 [Masitinib] + CC1(C)CCC(c2ccc(Cl)cc2)=C(CN2CCN(c3ccc(C(=O)NS(=O)(=O)c4ccc(N[C@H](CCN5CCOCC5)CSc5ccccc5)c(S(=O)(=O)C(F)(F)F)c4)cc3)CC2)C1 [Navitoclax] (partner 0.5 µM)
Summary of the method: as §1

Masitinib + Linsitinib = compound: Cc1ccc(NC(=O)c2ccc(CN3CCN(C)CC3)cc2)cc1Nc1nc(-c2cccnc2)cs1 [Masitinib] + C[C@]1(O)C[C@@H](c2nc(-c3ccc4ccc(-c5ccccc5)nc4c3)c3c(N)nccn32)C1 [Linsitinib] (partner 1 µM)
Summary of the method: as §1

NCI-H520
relative viability ([1]; first compound 0.08 µM): 0.259
relative viability ([1]; first compound 0.253 µM): 0.252
relative viability ([1]; first compound 0.8 µM): 0.302
relative viability ([1]; first compound 2.53 µM): 0.193
relative viability ([1]; first compound 8 µM): 0.251
relative viability ([2]; first compound 0.08 µM): 0.624
relative viability ([2]; first compound 0.253 µM): 0.694
relative viability ([2]; first compound 0.8 µM): 0.779
relative viability ([2]; first compound 2.53 µM): 0.851
relative viability ([2]; first compound 8 µM): 0.838
relative viability (Masitinib + Navitoclax; first compound 0.01 µM): 1.21
relative viability (Masitinib + Navitoclax; first compound 0.1 µM): 1.17
relative viability (Masitinib + Navitoclax; first compound 0.3162 µM): 1.05
relative viability (Masitinib + Navitoclax; first compound 1 µM): 1.08
relative viability (Masitinib + Linsitinib; first compound 0.01 µM): 1.12
relative viability (Masitinib + Linsitinib; first compound 0.1 µM): 1.15
relative viability (Masitinib + Linsitinib; first compound 0.3162 µM): 0.97
relative viability (Masitinib + Linsitinib; first compound 1 µM): 0.915

NCI-H596
relative viability ([1]; first compound 0.08 µM): 0.652
relative viability ([1]; first compound 0.253 µM): 0.775
relative viability ([1]; first compound 0.8 µM): 0.777
relative viability ([1]; first compound 2.53 µM): 0.64
relative viability ([1]; first compound 8 µM): 0.609
relative viability ([2]; first compound 0.08 µM): 0.552
relative viability ([2]; first compound 0.253 µM): 0.489
relative viability ([2]; first compound 0.8 µM): 0.453
relative viability ([2]; first compound 2.53 µM): 0.529
relative viability ([2]; first compound 8 µM): 0.422
relative viability (Masitinib + Navitoclax; first compound 0.01 µM): 0.876
relative viability (Masitinib + Navitoclax; first compound 0.03162 µM): 0.855
relative viability (Masitinib + Navitoclax; first compound 0.1 µM): 0.86
relative viability (Masitinib + Navitoclax; first compound 0.3162 µM): 0.894
relative viability (Masitinib + Navitoclax; first compound 1 µM): 0.866
relative viability (Masitinib + Linsitinib; first compound 0.01 µM): 1.21
relative viability (Masitinib + Linsitinib; first compound 0.03162 µM): 0.98
relative viability (Masitinib + Linsitinib; first compound 0.1 µM): 1.05
relative viability (Masitinib + Linsitinib; first compound 0.3162 µM): 1.14
relative viability (Masitinib + Linsitinib; first compound 1 µM): 1.05

NCI-H647
relative viability ([1]; first compound 0.08 µM): 0.531
relative viability ([1]; first compound 0.253 µM): 0.471
relative viability ([1]; first compound 0.8 µM): 0.659
relative viability ([1]; first compound 2.53 µM): 0.585
relative viability ([1]; first compound 8 µM): 0.644
relative viability ([2]; first compound 0.08 µM): 0.576
relative viability ([2]; first compound 0.253 µM): 0.531
relative viability ([2]; first compound 0.8 µM): 0.591
relative viability ([2]; first compound 2.53 µM): 0.498
relative viability ([2]; first compound 8 µM): 0.454
relative viability (Masitinib + Navitoclax; first compound 0.01 µM): 1.14
relative viability (Masitinib + Navitoclax; first compound 0.03162 µM): 1.1
relative viability (Masitinib + Navitoclax; first compound 0.1 µM): 1.08
relative viability (Masitinib + Navitoclax; first compound 0.3162 µM): 1.23
relative viability (Masitinib + Navitoclax; first compound 1 µM): 1.09
relative viability (Masitinib + Linsitinib; first compound 0.01 µM): 1.03
relative viability (Masitinib + Linsitinib; first compound 0.03162 µM): 1.19
relative viability (Masitinib + Linsitinib; first compound 0.1 µM): 1.03
relative viability (Masitinib + Linsitinib; first compound 0.3162 µM): 0.849
relative viability (Masitinib + Linsitinib; first compound 1 µM): 1.26

NCI-H727
relative viability ([1]; first compound 0.253 µM): 0.412
relative viability ([1]; first compound 0.8 µM): 0.597
relative viability ([1]; first compound 2.53 µM): 0.618
relative viability ([1]; first compound 8 µM): 0.568
relative viability ([2]; first compound 0.08 µM): 0.967
relative viability ([2]; first compound 0.8 µM): 1.1
relative viability ([2]; first compound 8 µM): 1.24
relative viability (Masitinib + Navitoclax; first compound 0.01 µM): 0.424
relative viability (Masitinib + Navitoclax; first compound 0.03162 µM): 0.431
relative viability (Masitinib + Navitoclax; first compound 0.1 µM): 0.385
relative viability (Masitinib + Navitoclax; first compound 0.3162 µM): 0.347
relative viability (Masitinib + Navitoclax; first compound 1 µM): 0.434
relative viability (Masitinib + Linsitinib; first compound 0.01 µM): 0.228
relative viability (Masitinib + Linsitinib; first compound 0.03162 µM): 0.268
relative viability (Masitinib + Linsitinib; first compound 0.1 µM): 0.297
relative viability (Masitinib + Linsitinib; first compound 0.3162 µM): 0.281
relative viability (Masitinib + Linsitinib; first compound 1 µM): 0.196

NCI-H838
relative viability ([1]; first compound 0.08 µM): 0.318
relative viability ([1]; first compound 0.253 µM): 0.357
relative viability ([1]; first compound 0.8 µM): 0.37
relative viability ([1]; first compound 2.53 µM): 0.386
relative viability ([1]; first compound 8 µM): 0.348
relative viability ([2]; first compound 0.08 µM): 0.64
relative viability ([2]; first compound 0.253 µM): 0.599
relative viability ([2]; first compound 0.8 µM): 0.628
relative viability ([2]; first compound 2.53 µM): 0.582
relative viability ([2]; first compound 8 µM): 0.524
relative viability (Masitinib + Navitoclax; first compound 0.01 µM): 1.06
relative viability (Masitinib + Navitoclax; first compound 0.03162 µM): 0.936
relative viability (Masitinib + Navitoclax; first compound 0.1 µM): 1.14
relative viability (Masitinib + Navitoclax; first compound 0.3162 µM): 1.01
relative viability (Masitinib + Navitoclax; first compound 1 µM): 1.11
relative viability (Masitinib + Linsitinib; first compound 0.01 µM): 0.895
relative viability (Masitinib + Linsitinib; first compound 0.03162 µM): 0.913
relative viability (Masitinib + Linsitinib; first compound 0.1 µM): 1.16
relative viability (Masitinib + Linsitinib; first compound 0.3162 µM): 0.86
relative viability (Masitinib + Linsitinib; first compound 1 µM): 1.05

NCI-H1355
relative viability ([1]; first compound 0.08 µM): 0.262
relative viability ([1]; first compound 0.253 µM): 0.323
relative viability ([1]; first compound 0.8 µM): 0.291
relative viability ([1]; first compound 2.53 µM): 0.343
relative viability ([1]; first compound 8 µM): 0.383
relative viability ([2]; first compound 0.08 µM): 0.521
relative viability ([2]; first compound 0.253 µM): 0.458
relative viability ([2]; first compound 0.8 µM): 0.429
relative viability ([2]; first compound 2.53 µM): 0.403
relative viability ([2]; first compound 8 µM): 0.469
relative viability (Masitinib + Navitoclax; first compound 0.01 µM): 0.956
relative viability (Masitinib + Navitoclax; first compound 0.03162 µM): 0.842
relative viability (Masitinib + Navitoclax; first compound 0.1 µM): 1
relative viability (Masitinib + Navitoclax; first compound 0.3162 µM): 0.754
relative viability (Masitinib + Navitoclax; first compound 1 µM): 0.946
relative viability (Masitinib + Linsitinib; first compound 0.01 µM): 0.808
relative viability (Masitinib + Linsitinib; first compound 0.03162 µM): 0.697
relative viability (Masitinib + Linsitinib; first compound 0.1 µM): 0.884
relative viability (Masitinib + Linsitinib; first compound 0.3162 µM): 0.743
relative viability (Masitinib + Linsitinib; first compound 1 µM): 0.801

NCI-H1395
relative viability ([1]; first compound 0.08 µM): 0.555
relative viability ([1]; first compound 0.253 µM): 0.567
relative viability ([1]; first compound 0.8 µM): 0.663
relative viability ([1]; first compound 2.53 µM): 0.505
relative viability ([1]; first compound 8 µM): 0.638
relative viability ([2]; first compound 0.08 µM): 0.618
relative viability ([2]; first compound 0.8 µM): 0.804
relative viability ([2]; first compound 2.53 µM): 0.478
relative viability ([2]; first compound 8 µM): 0.537
relative viability (Masitinib + Navitoclax; first compound 0.01 µM): 1.25
relative viability (Masitinib + Navitoclax; first compound 0.03162 µM): 1.17
relative viability (Masitinib + Navitoclax; first compound 0.1 µM): 1.11
relative viability (Masitinib + Navitoclax; first compound 0.3162 µM): 1.1
relative viability (Masitinib + Navitoclax; first compound 1 µM): 1.05
relative viability (Masitinib + Linsitinib; first compound 0.01 µM): 1.05
relative viability (Masitinib + Linsitinib; first compound 0.03162 µM): 1.09
relative viability (Masitinib + Linsitinib; first compound 0.1 µM): 1.09
relative viability (Masitinib + Linsitinib; first compound 0.3162 µM): 0.959
relative viability (Masitinib + Linsitinib; first compound 1 µM): 1.02

NCI-H1437
relative viability ([1]; first compound 0.08 µM): 1.04
relative viability ([1]; first compound 0.253 µM): 1.02
relative viability ([1]; first compound 0.8 µM): 1.08
relative viability ([1]; first compound 2.53 µM): 1.04
relative viability ([1]; first compound 8 µM): 0.714
relative viability ([2]; first compound 0.08 µM): 0.722
relative viability ([2]; first compound 0.253 µM): 0.732
relative viability ([2]; first compound 0.8 µM): 0.611
relative viability ([2]; first compound 2.53 µM): 0.718
relative viability ([2]; first compound 8 µM): 0.362
relative viability (Masitinib + Navitoclax; first compound 0.01 µM): 1.07
relative viability (Masitinib + Navitoclax; first compound 0.03162 µM): 1.01
relative viability (Masitinib + Navitoclax; first compound 0.1 µM): 1.08
relative viability (Masitinib + Navitoclax; first compound 0.3162 µM): 1.1
relative viability (Masitinib + Navitoclax; first compound 1 µM): 1.06
relative viability (Masitinib + Linsitinib; first compound 0.01 µM): 1.1
relative viability (Masitinib + Linsitinib; first compound 0.03162 µM): 0.991
relative viability (Masitinib + Linsitinib; first compound 0.1 µM): 0.986
relative viability (Masitinib + Linsitinib; first compound 0.3162 µM): 1.04
relative viability (Masitinib + Linsitinib; first compound 1 µM): 1.07
